Measured values reported in PubChem BioAssay AID212 (DTP/NCI, 2004).
Several values for one entry are separate records, joined by “and”; a condition that tells them apart may be missing. Equal values may be shown once. Inconclusive results are not listed.

System: BDF1 mice, colon carcinoma 38 sc, T/C %
Assay: NCI In Vivo Anticancer Drug Screen. Data for tumor model Colon Carcinoma 38 (subcutaneous) in B6D2F1 (BDF1) mice
Conditions: endpoint: median tumor weight (est.), higher = larger tumour
Method in brief: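 Mice with transplanted tumors are treated with compound or vehicle. Survival or tumor size is then measured in both groups. The ratio of treated to control gives the reported figure.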

[1] = dose: 25.0 mg/kg/injection, schedule: Q07DX002 (ip), vehicle: suspension in saline
[2] = dose: 50.0 mg/kg/injection, schedule: Q07DX002 (ip), vehicle: suspension in saline
[3] = dose: 25.0 mg/kg/injection, schedule: Q07DX002 (ip), vehicle: saline

SMILES: Nc1n[n+](-c2ccc(Cl)cc2)no1
- T/C (dose: 6.25 mg/kg/injection, schedule: Q07DX002 (ip), vehicle: water): 64 % of control and 78 % of control
- T/C (dose: 12.5 mg/kg/injection, schedule: Q07DX002 (ip), vehicle: water): 85 % of control and 87 % of control
- T/C (dose: 25.0 mg/kg/injection, schedule: Q07DX002 (ip), vehicle: water): 57 % of control
- T/C (dose: 50.0 mg/kg/injection, schedule: Q07DX002 (ip), vehicle: water): 119 % of control

SMILES: N=[N+]=CC(=O)CCC(NC(=O)C(CCC(=O)C=[N+]=N)NC(=O)CCC(N)C(=O)O)C(=O)O (centres undefined)
- T/C (dose: 3.12 mg/kg/injection, schedule: Q07DX003 (ip), vehicle: clinical formulation): 54 % of control
- T/C (dose: 3.12 mg/kg/injection, schedule: Q07DX003 (ip), vehicle: water): 52 % of control
- T/C (dose: 6.25 mg/kg/injection, schedule: Q07DX003 (ip), vehicle: clinical formulation): 62 % of control
- T/C (dose: 6.25 mg/kg/injection, schedule: Q07DX003 (ip), vehicle: water): 48 % of control
- T/C (dose: 12.5 mg/kg/injection, schedule: Q07DX003 (ip), vehicle: clinical formulation): 46 % of control
- T/C (dose: 12.5 mg/kg/injection, schedule: Q07DX003 (ip), vehicle: water): 32 % of control
- T/C (dose: 25.0 mg/kg/injection, schedule: Q07DX003 (ip), vehicle: clinical formulation): 40 % of control
- T/C (dose: 25.0 mg/kg/injection, schedule: Q07DX003 (ip), vehicle: water): 44 % of control
- T/C (dose: 50.0 mg/kg/injection, schedule: Q07DX003 (ip), vehicle: clinical formulation): 18 % of control
- T/C (dose: 50.0 mg/kg/injection, schedule: Q07DX003 (ip), vehicle: water): 12 % of control

SMILES: O=C1OC(=O)[C@H]2[C@@H]1[C@H]1C=C[C@@H]2OC1=O
- T/C [1]: 59 % of control
- T/C [2]: 65 % of control
- T/C (dose: 100.0 mg/kg/injection, schedule: Q07DX002 (ip), vehicle: suspension in saline): 44 % of control
- T/C (dose: 200.0 mg/kg/injection, schedule: Q07DX002 (ip), vehicle: suspension in saline): 62 % of control
- T/C (dose: 400.0 mg/kg/injection, schedule: Q07DX002 (ip), vehicle: suspension in saline): 71 % of control
- T/C (dose: 800.0 mg/kg/injection, schedule: Q07DX002 (ip), vehicle: suspension in saline): 97 % of control

SMILES: CSCS(=O)C[C@H](CO)NC(=O)/C=C/c1c(C)[nH]c(=O)[nH]c1=O (some centres undefined)
- T/C (dose: 0.25 mg/kg/injection, schedule: Q07DX002 (ip), vehicle: saline): 110 % of control and 86 % of control
- T/C (dose: 2.0 mg/kg/injection, schedule: Q07DX002 (ip), vehicle: saline): 105 % of control
- T/C (dose: 4.0 mg/kg/injection, schedule: Q07DX002 (ip), vehicle: saline): 62 % of control and 74 % of control

SMILES: CCOC(=O)CNC(=O)CCCCSc1ncnc2nc[nH]c12
- T/C (dose: 200.0 mg/kg/injection, schedule: Q07DX003 (ip), vehicle: saline with Tween-80): 74 % of control
- T/C (dose: 400.0 mg/kg/injection, schedule: Q07DX003 (ip), vehicle: saline with Tween-80): 104 % of control
- T/C (dose: 800.0 mg/kg/injection, schedule: Q07DX003 (ip), vehicle: saline with Tween-80): 79 % of control
- T/C (dose: 1600.0 mg/kg/injection, schedule: Q07DX003 (ip), vehicle: saline with Tween-80): 82 % of control

SMILES: Cc1c2cc[n+](CCN3CCCCC3)cc2c(C)c2c1[nH]c1ccc(O)cc12
- T/C (dose: 3.12 mg/kg/injection, schedule: Q07DX002 (ip), vehicle: saline): 36 % of control
- T/C (dose: 3.12 mg/kg/injection, schedule: Q07DX002 (ip), vehicle: suspension in saline): 100 % of control
- T/C (dose: 6.25 mg/kg/injection, schedule: Q07DX002 (ip), vehicle: saline): 53 % of control and 61 % of control
- T/C (dose: 6.25 mg/kg/injection, schedule: Q07DX002 (ip), vehicle: suspension in saline): 104 % of control
- T/C (dose: 12.5 mg/kg/injection, schedule: Q07DX002 (ip), vehicle: suspension in saline): 86 % of control
- T/C [3]: 39 % of control and 64 % of control
- T/C [1]: 69 % of control
- T/C [2]: 39 % of control
- T/C (dose: 100.0 mg/kg/injection, schedule: Q07DX002 (ip), vehicle: saline): 36 % of control and 47 % of control

SMILES: C=C1CC2(OC1=O)C(=O)N(C)c1ccc(I)cc12 (centres undefined)
- T/C (dose: 1.81 mg/kg/injection, schedule: Q07DX002 (ip), vehicle: suspension in saline): 69 % of control
- T/C (dose: 3.62 mg/kg/injection, schedule: Q07DX002 (ip), vehicle: suspension in saline): 114 % of control
- T/C (dose: 7.25 mg/kg/injection, schedule: Q07DX002 (ip), vehicle: suspension in saline): 120 % of control
- T/C (dose: 14.5 mg/kg/injection, schedule: Q07DX002 (ip), vehicle: suspension in saline): 63 % of control
- T/C [3]: 93 % of control
- T/C (dose: 29.0 mg/kg/injection, schedule: Q07DX002 (ip), vehicle: suspension in saline): 107 % of control
- T/C (dose: 58.0 mg/kg/injection, schedule: Q07DX002 (ip), vehicle: suspension in saline): 111 % of control
- T/C (dose: 200.0 mg/kg/injection, schedule: Q07DX002 (ip), vehicle: saline): 89 % of control
- T/C (dose: 400.0 mg/kg/injection, schedule: Q07DX002 (ip), vehicle: saline): 108 % of control and 121 % of control

SMILES: CS(=O)(=O)[O-].CS(=O)(=O)[O-].NC1CCCCC1N.[Pt+4] (centres undefined)
- T/C (dose: 0.31 mg/kg/injection, schedule: Q07DX002 (ip), vehicle: dextrose): 71 % of control
- T/C (dose: 0.62 mg/kg/injection, schedule: Q07DX002 (ip), vehicle: dextrose): 58 % of control and 82 % of control
- T/C (dose: 1.25 mg/kg/injection, schedule: Q07DX002 (ip), vehicle: dextrose): 54 % of control and 56 % of control
- T/C (dose: 2.5 mg/kg/injection, schedule: Q07DX002 (ip), vehicle: dextrose): 35 % of control and 45 % of control
- T/C (dose: 5.0 mg/kg/injection, schedule: Q07DX002 (ip), vehicle: dextrose): 39 % of control
- T/C (dose: 10.0 mg/kg/injection, schedule: Q07DX002 (ip), vehicle: dextrose): 19 % of control

SMILES: CS(=O)(=O)OCCN(CCOS(C)(=O)=O)c1ccc(C=Nc2ccc(-c3csc(COc4ccccc4)n3)cc2)cc1
- T/C (dose: 50.0 mg/kg/injection, schedule: Q07DX002 (ip), vehicle: Klucel (hydroxypropylcellulose) (HPC)): 158 % of control
- T/C (dose: 200.0 mg/kg/injection, schedule: Q07DX002 (ip), vehicle: Klucel (hydroxypropylcellulose) (HPC)): 97 % of control and 100 % of control
- T/C (dose: 400.0 mg/kg/injection, schedule: Q07DX002 (ip), vehicle: Klucel (hydroxypropylcellulose) (HPC)): 46 % of control

SMILES: Cc1cc(O)c(N=Nc2ccc(C(=O)O)cc2)cc1C
- T/C (dose: 25.0 mg/kg/injection, schedule: Q07DX002 (ip), vehicle: saline with Tween-80): 108 % of control
- T/C (dose: 50.0 mg/kg/injection, schedule: Q07DX002 (ip), vehicle: saline with Tween-80): 104 % of control
- T/C (dose: 100.0 mg/kg/injection, schedule: Q07DX002 (ip), vehicle: saline with Tween-80): 100 % of control
- T/C (dose: 200.0 mg/kg/injection, schedule: Q07DX002 (ip), vehicle: saline with Tween-80): 55 % of control
- T/C (dose: 400.0 mg/kg/injection, schedule: Q07DX002 (ip), vehicle: saline with Tween-80): 84 % of control

SMILES: Cc1cn(C2CC(O)C(CO)O2)c(=O)[nH]c1=O (centres undefined)
- T/C (dose: 25.0 mg/kg/injection, schedule: Q07DX003 (ip), vehicle: saline): 54 % of control and 79 % of control
- T/C (dose: 50.0 mg/kg/injection, schedule: Q03HX024 (ip), vehicle: saline): 95 % of control
- T/C (dose: 50.0 mg/kg/injection, schedule: Q07DX003 (ip), vehicle: saline): 76 % of control
- T/C (dose: 100.0 mg/kg/injection, schedule: Q03HX024 (ip), vehicle: saline): 98 % of control
- T/C (dose: 200.0 mg/kg/injection, schedule: Q03HX024 (ip), vehicle: saline): 66 % of control
- T/C (dose: 200.0 mg/kg/injection, schedule: Q07DX003 (ip), vehicle: saline): 90 % of control
- T/C (dose: 400.0 mg/kg/injection, schedule: Q03HX024 (ip), vehicle: saline): 122 % of control
- T/C (dose: 400.0 mg/kg/injection, schedule: Q07DX003 (ip), vehicle: saline): 89 % of control and 101 % of control

SMILES: CC1=C(/C=C/C(C)=C/C=C/C(C)=C/CO)C(C)(C)CCC1
- T/C (dose: 8.0 mg/kg/injection, schedule: Q07DX003 (ip), vehicle: saline with Tween-80): 113 % of control and 106 % of control
- T/C (dose: 32.0 mg/kg/injection, schedule: Q07DX003 (ip), vehicle: saline with Tween-80): 194 % of control
- T/C (dose: 64.0 mg/kg/injection, schedule: Q07DX003 (ip), vehicle: saline with Tween-80): 111 % of control and 122 % of control

SMILES: Nc1ncnc2c(C3OC(CO)C(O)C3O)[nH]nc12 (centres undefined)
- T/C (dose: 15.0 mg/kg/injection, schedule: Q07DX002 (ip), vehicle: suspension in saline): 193 % of control
- T/C (dose: 30.0 mg/kg/injection, schedule: Q07DX002 (ip), vehicle: suspension in saline): 201 % of control
- T/C (dose: 60.0 mg/kg/injection, schedule: Q07DX002 (ip), vehicle: suspension in saline): 168 % of control
- T/C (dose: 120.0 mg/kg/injection, schedule: Q07DX002 (ip), vehicle: suspension in saline): 150 % of control
